Here are results for 1 compound from patent publication US20220304945A1, “METHODS OF TREATING METABOLIC SYNDROME RELATED CONDITIONS USING RETINOIC ACID RECEPTOR AGONISTS” (Cornell University, priority 2014, published 2022).

Assay [1] has as its system HF-fed C57/BL6 mice. As to the kind of experiment: HF-fed mice treated 3 months: body weight, GTT, fasting glucose (Example 22). The format is in vivo, mouse. How it is done:
METHODS. Preparation of RARβ agonists solution. AC261066 and AC55649 were dissolved in dimethyl sulfoxide (DMSO) at the concentration of 3.0 mg/ml and diluted in the drinking water for mice to the final concentration of 3.0-mg/100 ml. Mice, diet, and drug treatments. Wt male C57/BL6 male mice were maintained on either a standard laboratory chow-fed diet (Con) with 13% kcal fat, (diet #5053, Lab Diet, Inc, St. Louis, Mo., [n=4]) or a high fat, western style diet (HFD) with 45% kcals from fat, (diet #58126, Lab Diet, Inc., St. Louis, Mo.) for 3 months. Two weeks after the start of the HFD treatment, the HFD group was further split into 3 groups for 3 months: i) HFD and drinking water containing 1% DMSO (n=5); ii) high fat diet (HFD) and drinking water containing 3.0 mg/100 ml AC261066, a specific RARβ agonist (n=5) or iii) HFD and drinking water containing 3.0 mg/100 ml AC55649, a specific RARβ agonist (n=4). After 3 months the mice were tested for glucose intolerance with an intra-peritoneal glucose tolerance test (GTT). Mice were then sacrificed by cervical dislocation. Blood and various tissue samples were harvested.
Glucose Tolerance Test (GTT). Glucose tolerance was performed using an intraperitoneal glucose tolerance test (GTT). Mice were fasted overnight (˜16 hrs) followed by intra-peritoneal injections (n=3-5 per group) of 50% glucose in PBS at 2.0 g of glucose/kg of body weight. Tail vein blood was collected at 15, 30, 45, 60, and 120 minutes post-injection for glucose measurements using a FreeStyle Lite Blood Glucose Monitoring System (Abbott Diabetes Care, Inc. Alameda, Calif.). Random and fasting blood glucose measurements were taken from tail veins of 4 mice per group at 2-3 random time points daily or just prior to GTT. Means are expressed as ±standard error of the mean (S.E.M) and P-values were calculated using one-way analysis of variance followed by Bonferroni post-hoc analysis. Grubbs' maximum normal residual test was used for detection of one or more outliers.

Assay [2] deals with HF-fed C57/BL6 mice. The assay is described as follows: Metabolic studies (body weight, GTT) in HF-fed wild type mice, 4 months. The format is in vivo, mouse. The conditions noted are these: obese HF-fed mice, 3.0 mg/100 ml drinking water. How it is done: Mice, diet, and drug treatment. Dietary Obesity Studies: Wild type (wt) male C57/BL6 male mice were maintained on either a standard laboratory chow-fed diet (Con) with 13% kcal fat, (diet #5053, Lab Diet, Inc, St. Louis, Mo.) or a high fat, western style diet (HFD) with 45% kcals from fat, (diet #58126, Lab Diet, Inc., St. Louis, Mo.) for 4 months. […]
Metabolic Measurements-Glucose tolerance was performed using an intraperitoneal glucose tolerance test (GTT) as previously described (Trasino et al., Vitamin A Deficiency Causes Hyperglycemia and Loss of Pancreatic β-Cell Mass, J Biol Chem. 2014 Dec. 1. pii: jbc.M114.616763). […] Tail vein blood glucose was measured at 20, 40, 60 and 120 minutes after injection using a FreeStyle Lite Blood Glucose Monitoring System (Abbott Diabetes Care, Inc. Alameda, Calif.). To determine insulin secretion responses to glucose, serum fractions were isolated between 0-60 minutes post glucose injections and insulin concentrations were measured using an Ultrasensitive Insulin ELISA Kit (Alpco, Inc. Salem, N.H.). Random blood glucose measurements were taken from tail veins of 4 mice per group at 2-3 random time points daily Means are expressed as±standard error of the mean (S.E.M) and P-values were calculated using one-way analysis of variance followed by Bonferroni post-hoc analysis.

Assay [3] has as its target T1, RARβ2 (Homo sapiens, UniProt P10826).
T1 sequence (P10826 1-448 isoform P10826-2): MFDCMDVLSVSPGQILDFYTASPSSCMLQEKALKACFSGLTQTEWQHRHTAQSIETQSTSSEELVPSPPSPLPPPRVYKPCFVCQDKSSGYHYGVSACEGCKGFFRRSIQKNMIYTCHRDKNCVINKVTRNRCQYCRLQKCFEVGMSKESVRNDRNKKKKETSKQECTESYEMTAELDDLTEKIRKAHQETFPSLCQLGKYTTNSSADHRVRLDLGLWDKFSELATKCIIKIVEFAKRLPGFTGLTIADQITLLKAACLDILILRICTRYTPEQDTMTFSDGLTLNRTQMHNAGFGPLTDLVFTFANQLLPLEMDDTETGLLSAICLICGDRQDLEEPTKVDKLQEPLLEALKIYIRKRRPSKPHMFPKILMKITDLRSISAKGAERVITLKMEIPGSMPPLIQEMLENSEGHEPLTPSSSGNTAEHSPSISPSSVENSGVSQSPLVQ
As to conditions: as described in Lund et al. 2005; cited from earlier work.

For assay [4], the system named is Ob/Ob and Db/Db mice. The assay is described as follows: Metabolic studies (body weight, GTT, insulin secretion, ITT) in Ob/Ob and Db/Db mice, 8 weeks. The assay is classed as in vivo, mouse. The conditions noted are these: genetically obese and diabetic Ob/Ob and Db/Db mice.

Take `CCCCCCCCc1ccc(-c2ccc(C(=O)O)cc2)cc1` [AC55649, 4′-Octyl-[1,1′-biphenyl]-4-carboxylic acid]: in assay [1], the “glucose tolerance and area under the curve glucose” value is reported as “improved”. Besides, the “overnight fasting glucose levels” value in assay [1] is “significant reductions”. For the same compound, the “decrease in body weights compared to HF-fed mice” value in assay [1] (3.0 mg/100 ml drinking water) was approximately 10%. For the same compound, the body weights entry in assay [2] and in assay [4] was “significant reductions” in each case. Also, the “isoform selectivity for the human RARβ2 receptors” value in assay [3] is listed as “highly isoform-selective agonists”.
